Patent US20250011788A1, “NUCLEIC ACID INTERFERENCE PHARMACEUTICAL COMPOSITION, AND DRUG FOR TREATING COLORECTAL CANCER, GASTRIC CANCER, AND PROSTATE CANCER” (SIRNAOMICS BIOPHARMACEUTICALS (SUZHOU) CO., LTD., priority 2022, published 2025)
d = 2'-deoxy (DNA); r = 2'-OH (RNA)

What was measured:
[1] = tested on: RM-1 cells tumor graft; assay: Mouse subcutaneous tumor graft model of prostate cancer RM-1 cells; assay type: in vivo, C57BL/6J mice
Procedure: Next, another tumor graft model was established to further validate the pharmacodynamic evaluation of candidate drug on the growth of mouse tumor graft of mouse prostate cancer RM-1 cells. The nano drug formulation was prepared by the method described above. RM-1 subcutaneous tumor-bearing mice were modeled as follows: C57BL/6J mice were each inoculated subcutaneously with 5×10^6 cells. The mice were grouped on the basis of random numbers when the mean tumor volume reached about 100-120 mm^3. The dosing regimen was as follows: for STP500, 3 mg/kg, intravenously administered (i.v.) via the tail vein, every 2 days (Q2D); for The positive control (docetaxel), 15 mg/kg, intraperitoneally administered (i.p.), every week (QW). After the first dose, the weight and tumor volume of the mice were recorded every 2 days, and the tumor volume was calculated by V=0.5×(Dmax×Dmin^2), where Dmax refers to the longest diameter of the tumor, and Dmin refers to the shortest diameter of the tumor. A tumor volume curve was drawn at the end of the experiment. The mice were euthanized, and tumors were removed and weighed. TGItw (percentage change in Tumor weight) was calculated by:
(§1) [formula] • Mean TWtreat: the mean tumor weight of the mice in the treatment group at the end of treatment; • Mean TWvehicle: the Mean tumor weight of mice in the Vehicle group at the end of treatment.

[2] = tested on: MKN45 cells tumor xenograft; assay: Mouse subcutaneous tumor xenograft model of gastric cancer MKN45 cells; assay type: in vivo, BALB/c-Nude mice
Procedure: Next, another tumor graft model was established to further validate the pharmacodynamic evaluation of candidate drug on the growth of mouse tumor xenograft of human gastric cancer MKN45 cells. The nano drug formulation was prepared by the method described above. MKN45 subcutaneous tumor-bearing mice were modeled as follows: BALB/c-Nude mice were each inoculated subcutaneously with 5×10^6 MKN45 cells. Randomization was performed when the mean tumor volume reached about 100-120 mm^3. […] After the first dose, the weight and tumor volume of the mice were recorded every 2 days, and the tumor volume was calculated by V=0.5×(Dmax×Dmin^2), where Dmax refers to the longest diameter of the tumor, and Dmin refers to the shortest diameter of the tumor. A tumor volume curve was drawn at the end of the experiment. The mice were euthanized, and tumors were removed and weighed. TGItw (percentage change in tumor weight) was calculated by:
as §1

[3] = tested on: MC38 cells tumor graft; assay: Mouse subcutaneous tumor graft model of colorectal cancer MC38 cells; assay type: in vivo, C57BL/6 mice; conditions: STP500 2 mg/kg i.v. Q2D, siMD8 1 mg/kg i.v. Q2D, Sorafenib 30 mg/kg p.o. QD
Text: Based on the data from previous in-vitro experiments, two siRNAs (MD8-21-hm5# and TF1-25-hm5# in this example) were mixed at a mass ratio of 1/1, and encapsulated the mixture into the HKP(+H) (histidine-lysine polymer) carrier through patented PNP technology to prepare the nanoparticle formulation (the nano drug formulation STP500 prepared in Example 8). The tumor growth inhibitory activity of the candidate siRNA sequence was validated by a mouse tumor xenograft model (colorectal cancer cells MC38).
C57BL/6 mice were each inoculated subcutaneously with 1×10^6 MC38 cells per mouse, and randomized groups when the mean tumor volume reached about 100 mm^3. The dosing regimen was as follows: for STP500, 2 mg/kg, intravenously administered (i.v.) via the tail vein, every 2 days (Q2D); for Small nucleic acid monotherapy MD8 (MyD88 siRNA, also known as siMyD88), 1 mg/kg, intravenously administered (i.v.) via the tail vein, every 2 days (Q2D); and for the positive control group (Sorafenib), 30 mg/kg, intragastrically administered p.o., every day (QD). After the first dose, the weight and tumor volume of the mice were recorded every 2 days, and the tumor volume was calculated by V=0.5×(Dmax×Dmin^2), where Dmax refers to the longest diameter of the tumor, and Dmin refers to the shortest diameter of the tumor. […] TGItw (percentage change in tumor weight) was calculated by: […]

[4] = tested on: MyD88 gene (mRNA); assay: EC50 of MyD88 mRNA knockdown in human-derived cell lines; assay type: cell-based
Procedure: Then, for these candidate siRNA sequences, multiple concentration gradients were set in human-derived cell lines and mouse-derived cell lines respectively for cell transfection, and their EC50 values (half-maximal effective concentration) were obtained. […] In the mouse-derived cell lines, EC50<10 nM only occurs for MD8-21-hm5# in mouse prostate cancer (RM-1) cells and colorectal cancer (MC38) cells as well as MD8-21-hm4# in colorectal cancer (MC38) cells. Therefore, based on the above data, the human-mouse homologous sequence MD8-21-hm5# is preferably used for pharmacodynamic evaluation of animal models in vivo.

[5] = tested on: MyD88 gene (mRNA); assay: In vitro screening of MyD88 siRNA: MyD88 mRNA silencing by RT-PCR; assay type: cell-based, human; conditions: 100 nM siRNA; for target gene silencing effect in colorectal cells: lipo2000, 20-24 h
Procedure: Some cell lines screened out in Example 2 were used for primary siRNA screening, including a breast cancer cell line (MDA-MB-231), a neuroglioma cell line (U87-MG), a human brain glioma cell line (T98G), a human colorectal cancer epithelial cell line (DLD-1) and a human colon cancer cell line (RKO). Specifically, the MyD88 siRNA sequence in Table 1 was transfected into the above five cells by lipo2000, and the transfection concentration was 100 nM (calculated by siRNA). After transfection for 20-24 h, the total RNA of the cells was extracted, and the mRNA expression level of the target gene MyD88 was detected by RT-PCR technology. […] The three specifical sequences are MD8-21-hm3# (NTS00025-21-hm3# in FIG. 3), MD8-21-hm4# (NTS00025-21-hm4# in FIG. 3) and MD8-21-hm5# (NTS00025-21-hm5# in FIG. 3).

[6] = tested on: DLD-1 cells; assay: In vitro cell migration (wound healing/scratch) test; assay type: cell-based, human; conditions: 96 h, 100 and 10 nM, dose-dependent
Procedure: On the day before the initiation of the experiment, a 12-well plate was prepared, a 2-well culture-insert for wound healing (ibidi, 80209) was placed in the center of the culture dish, and cells were inoculated into the 2-well culture-insert at 1×10^4 cells per well and cultured overnight. On the second day, siMyD88 was transfected into the cells at […] and 10 nM, and the transfection experiment was completed. After transfection for 24 h, the 2-well culture-insert for wound healing was gently removed with tweezers (to avoid cell shedding), and the 12-well plate was added with a medium containing 1% serum to continue cell culture. At the same time, a photograph was taken under the microscope as the 0 h cell migration data. The culture was continued for 24 h and 96 h, and the cell migration was recorded under the microscope. The cell migration was determined by comparing the wound distance at the initial scratch (0 h) versus at the later observation points (24 h and 96 h).

[7] = tested on: MyD88 protein; assay: Western Blot knockdown of target gene protein in cell lines (MyD88); assay type: cell-based, human and mouse cell lines; conditions: MDA-MB-231, RKO and RM-1 cells; 100 nM and 10 nM, 48 h
[8] = tested on: TGF-β1 protein; assay: Western Blot knockdown of target gene protein in cell lines (TGF-β1); assay type: cell-based, human; conditions: RKO cell line; 100 nM and 10 nM, 48 h
Procedure: The target gene knockdown effects of siRNA sequences on the targets TGF-β1 and MyD88 at the cellular level were evaluated by Western Blot. The procedures were as follows: on The day before the initiation of the experiment, the cells were inoculated in a 6-well plate at 1×10^6 cells per well, and cultured overnight. On the second day, siMyD88 and siTF1 were transfected into the cells at 100 nM and 10 nM respectively. After transfection for 48 h, the cells were collected and transferred to centrifuge tubes. RIPA lysate was added to each tube to extract total cell protein, and then the total cell protein concentration was quantified by a BCA protein quantification method. Western Blot analysis was performed on all protein samples using the following antibodies: MyD88 primary antibody (ab219413, 1:1000), TGF-β1 primary antibody (ab215715, 1:1000), Goat Anti-Rabbit IgG H&L (HRP) (ab205718, 1:10000). After the experiment, the ChemiDoc™ MP Imaging System (BIO-RAD) was used to capture the results.
Western Blot analysis of protein expression in candidate MyD88 siRNA (MD8-21-hm5#) plus TGF-β1 siRNA (TF1-21-h1#) in three cell lines in in-vitro human breast cancer cell line (MDA-MB-231) (FIG. 5A), human colon cancer cell line (RKO) (FIG. 5B) and mouse prostate cancer (RM-1) cells (FIG. 5C).

CC(=O)O[C@@]12CO[C@@H]1C[C@H](O)[C@@]1(C)C(=O)[C@H](O)C3=C(C)[C@@H](OC(=O)[C@H](O)[C@@H](NC(=O)OC(C)(C)C)c4ccccc4)C[C@@](O)([C@@H](OC(=O)c4ccccc4)[C@H]21)C3(C)C [Docetaxel]
effect on the weight of mice ([1]; STP500 3 mg/kg Q2D, Docetaxel 15 mg/kg i.p. QW): no significant difference | growth of prostate cancer tumor graft ([1]; after 8 doses, compared with control group): did not show a tumor-killing effect | Tumor weight, Mean ([1]; end of treatment, STP500 3 mg/kg i.v. Q2D, Docetaxel 15 mg/kg i.p. QW): 4.72 g | TGItw (tumor growth inhibition by tumor weight) ([1]; versus Vehicle, STP500 3 mg/kg i.v. Q2D, Docetaxel 15 mg/kg i.p. QW): −4%

O=C1[O][Pt]2([NH][C@@H]3CCCC[C@H]3[NH]2)[O]C1=O [Oxaliplatin]
growth of gastric cancer tumor graft ([2]; after 7 doses, compared with control group): better tumor inhibition effect | Tumor weight, Mean ([2]; end of treatment, STP500 3 mg/kg i.v. Q2D, Oxaliplatin 7.5 mg/kg i.p. QD): 0.16 g | TGItw (tumor growth inhibition by tumor weight) ([2]; versus Vehicle, STP500 3 mg/kg i.v. Q2D, Oxaliplatin 7.5 mg/kg i.p. QD): 58%

CNC(=O)c1cc(Oc2ccc(NC(=O)Nc3ccc(Cl)c(C(F)(F)F)c3)cc2)ccn1 [Sorafenib]
Tumor weight, Mean ([3]; end of treatment): 0.3571 g | TGItw (tumor growth inhibition by tumor weight) ([3]; versus Vehicle): 12.28%

MD8-21-h5#: MyD88 siRNA; sense GCAUACACACGUUUUUCUAdTdT (SEQ ID NO: 9), antisense UAGAAAAACGUGUGUAUGCdTdT (SEQ ID NO: 10) (sense GCAUACACACGUUUUUCUATT; antisense UAGAAAAACGUGUGUAUGCTT; sugars from the 5' end r19 d2, backbone not given here)
effect in EC50 comparison [4]: relatively good | ranking of silencing effect among human-derived sequences ([5]; five human cell lines): best effect

MD8-21-hm3#: MyD88 siRNA; sense CAGAGCAAGGAAUGUGACUdTdT (SEQ ID NO: 27), antisense AGUCACAUUCCUUGCUCUGdTdT (SEQ ID NO: 28) (sense CAGAGCAAGGAAUGUGACUTT; antisense AGUCACAUUCCUUGCUCUGTT; sugars from the 5' end r19 d2, backbone not given here)
target gene silencing effect in colorectal cells [5]: about 85%

MD8-21-hm4#: MyD88 siRNA; sense GCAAGGAAUGUGACUUCCAdTdT (SEQ ID NO: 29), antisense UGGAAGUCACAUUCCUUGCdTdT (SEQ ID NO: 30) (sense GCAAGGAAUGUGACUUCCATT; antisense UGGAAGUCACAUUCCUUGCTT; sugars from the 5' end r19 d2, backbone not given here)
target gene silencing effect in colorectal cells [5]: about 85%

MD8-21-hm5#: MyD88 siRNA; sense GAAUGUGACUUCCAGACCAdTdT (SEQ ID NO: 31), antisense UGGUCUGGAAGUCACAUUCdTdT (SEQ ID NO: 32) (sense GAAUGUGACUUCCAGACCATT; antisense UGGUCUGGAAGUCACAUUCTT; sugars from the 5' end r19 d2, backbone not given here)
inhibitory effect on in vitro migration ability [6]: significant inhibitory effect | effect in EC50 comparison [4]: relatively good | knockdown effect on MyD88 protein [7]: obvious knockdown effect | target gene silencing effect in colorectal cells [5]: about 85%

TF1-21-h1#: TGF-β1 siRNA; sense GCAGAGUACACACAGCAUAdTdT (SEQ ID NO: 37), antisense UAUGCUGUGUGUACUCUGCdTdT (SEQ ID NO: 38) (sense GCAGAGUACACACAGCAUATT; antisense UAUGCUGUGUGUACUCUGCTT; sugars from the 5' end r19 d2, backbone not given here)
knockdown effect on TGF-β1 protein [8]: obvious knockdown effect
